Data on two compounds can be found in US20240390417A1, “MNO NANOMATERIAL BASED INHIBITORS OF INFLAMMATION AND SARS-COV-2 VIRAL REPLICATION” (Duke University, priority 2015, published 2024).

The test system of one data set is 4T1 tumor-bearing mice. Kind of data set: PTT-induced inflammation, 4T1 metastasis tumor model. Conditions: intravenous three times per week. How it is done:
The fluorescent signal intensity was recorded on the IVIS® instrument at different time intervals.
The ability of the MnO and MnO@Cucumin nanoparticles to mitigate the PTT-induced inflammatory response was examined on 4T1 tumor-bearing mice. […] The 4T1 tumor-bearing mice received photothermal therapy first, and then were further treated with different formulations by intravenous injection three times per week.

A further data set concerns calf thymus DNA. Briefly: PicoGreen DNA-binding assay. The following applies: TE buffer, unbound PicoGreen-labeled DNA. As for the experimental part: The fluorescence intensity of the unbound Picogreen®-DNA complex at 520 nm was measured with a multiwell plate reader via excitation at 490 nm.
Inflammatory circulating cfDNA released by PTT-damaged host cells might cause a severe inflammatory response, which may be mitigated by the scavenging of cfDNA. Therefore, to interrogate the cfDNA scavenging ability of the various nanoparticles, the inventors investigated the calf thymus DNA binding affinity of the nanoparticles in Tris-EDTA (TE) buffer with and without 10% FBS by measuring unbound PicoGreen®-labeled DNA (FIGS. 5C and 5D).

As to `COc1cc(/C=C/C(=O)CC(=O)/C=C/c2ccc(O)c(OC)c2)ccc1O` [curcumin], in the data set with 4T1 tumor-bearing mice (after laser (PTT)), the body weight result is recorded as “increased body weight”; the “tumor recurrence and metastasis” value is “inhibited tumor recurrence and metastasis”. Moreover, in the data set on 4T1 tumor-bearing mice (without laser), the “effect on body weight of the mice” value is reported as “did not show obvious effects” and the “effect on size of the tumors” value was “did not show obvious effects”. Further, the DNA binding affinity entry in the data set with calf thymus DNA is “negligible DNA binding ability”.
Consider `O=C(OC[C@H]1O[C@@H](OC(=O)c2cc(O)c(O)c(OC(=O)c3cc(O)c(O)c(O)c3)c2)[C@H](OC(=O)c2cc(O)c(O)c(OC(=O)c3cc(O)c(O)c(O)c3)c2)[C@@H](OC(=O)c2cc(O)c(O)c(OC(=O)c3cc(O)c(O)c(O)c3)c2)[C@@H]1OC(=O)c1cc(O)c(O)c(OC(=O)c2cc(O)c(O)c(O)c2)c1)c1cc(O)c(O)c(OC(=O)c2cc(O)c(O)c(O)c2)c1` [tannic acid], for which the DNA binding affinity result in the data set on calf thymus DNA is reported as “can bind to DNA”.
